In patent publication US8317991B2, “Process for electrokinetic migration through liquid membranes” (priority 2005, dated 2012):
Where a name gives a salt, the structure may show the parent alone.

Legend:
[1] = 1-octanol/water partition coefficient; Clarkes Analysis of Drugs and Poisons; cited from earlier work
[2] = Clarkes Analysis of Drugs and Poisons; cited from earlier work
[3] = Electrokinetic cross-membrane isolation (ECMI) of basic drugs; recovery in acceptor solution by capillary electrophoresis; format: physicochemical; set-up: key to Recovery: *: Recovery was observed, but results were unreliable due to large standard deviations; settings: for Recovery: liquid membrane 2-octanone, 300 V, 5 min, 5.2 mm vial; for Enrichment: optimal ECMI, 300 μl sample to 30 μl acceptor
Protocol: The DC power supply used was a model XFR 300-9 (Xantrex, Burnaby, BC, Canada) with a programmable voltage in the range 0 to 300 V, providing currents in the range 0 to 9 A. Simple steel wires with a diameter of 0.2 mm were used as electrodes in the sample and acceptor solutions, and were connected to the power supply. As sample compartment, 800 μL polypropylene vials with cap were used with a height of 35 mm and with an internal diameter of 5.2 mm (unknown supplier). […] The porous hollow fiber used for immobilization of the artificial liquid membrane and for housing the acceptor solution was a PP Q3/2 polypropylene hollow fiber (Membrana, Wuppertal, Germany) with an internal diameter of 1.2 mm, with a 200 μm wall thickness, and with 0.2 μm pores. The ECMI was agitated at 1200 rpm during the experiments with a Vibramax 100 agitator (Heidolph, Kelheim, Germany).
ECMI was performed according to the following procedure; 300 μl acidified sample solution was filled into a polypropylene vial, and the positive electrode was placed in the sample. A 3.1 cm piece of polypropylene hollow fiber was closed in the lower end by mechanical pressure, whereas the upper end was connected to a 2.2 cm length pipette tip of polypropylene as a guiding tube. The hollow fiber and the guiding tube were then inserted through the cap of the sample vial. The hollow fiber was dipped for 5 s in the organic solvent serving as the artificial liquid membrane (typically 2-nitrophenyl octyl ether, nitrobenzene, 1-isopropyl nitrobenzene, octanol or heptanol), and excess of solvent was removed with a medical wipe. With a micro syringe, 30 μL of acceptor solution was filled into the hollow fiber, and the negative electrode was placed in the acceptor solution. Finally, the hollow fiber with acceptor solution was placed into the sample, and voltage (typically 300 V) was applied for 5 minutes. After electrokinetic cross-membrane isolation, the acceptor solution was collected with a micro syringe, and was transferred to a micro insert for the capillary electrophoresis instrument.
Capillary electrophoresis was performed with a MDQ instrument (Beckman, Fullerton, Calif., USA) equipped with a UV-detector. Separations were accomplished in a 75-μm-i.d. fused-silica capillary with an effective length of 20 cm (Beckman). The running buffer was 15 mM phosphate adjusted to pH 2.7 with ortho-phosphoric acid. The instrument was operated at 20 kV, which generated a current level of approximately 50 μA. Samples were introduced by hydrodynamic injection at 0.5 psi for 5 s. Detection was accomplished at 200 nm utilizing a 100×800 μm slit.
Recovery (R) during the cross-membrane isolation was calculated according to the following equation for each analyte: R=na,final/ns,initial×100%=(Va/Vs)(Ca,final/Cs,initial)·100% (1) where ns,initial and na,final are the number of moles of analyte originally present in the sample and the number of moles of analyte finally collected in the acceptor solution, respectively. Va is the volume of acceptor phase, Vs is the volume of sample, Ca,final is the final concentration of analyte in the acceptor phase, and Cs,initial is the initial analyte concentration within the sample.
Enrichment (E) during the cross-membrane isolation was calculated according to the following equation for each analyte: E=Ca,final/Cs,initial (2) Results and Discussion Initial Experiments.

CN1CCC[C@@H]1CCO[C@](C)(c1ccccc1)c1ccc(Cl)cc1 [Clemastine, clemastine]
log P [1]: 5.7 | pKa [2]: 10.2

CN(C)CCCN1c2ccccc2CCc2ccc(Cl)cc21 [Clomipramine, clomipramine]
log P [1]: 5.2

OCCN1CCN(CCCN2c3ccccc3Sc3ccc(C(F)(F)F)cc32)CC1 [Fluphenazine, fluphenazine]
log P [1]: 3.5

O=C(CCCN1CCC(O)(c2ccc(Cl)cc2)CC1)c1ccc(F)cc1 [Haloperidol, haloperidol]
Recovery [3]: * | Enrichment [3]: 7.2 | log P [1]: 3.2

OCCOCCN1CCN(C(c2ccccc2)c2ccc(Cl)cc2)CC1 (centres unmarked) [Hydroxyzine, hydroxyzine]
log P [1]: 2.4

CN(C)C(=O)C(CCN1CCC(O)(c2ccc(Cl)cc2)CC1)(c1ccccc1)c1ccccc1 [Loperamide, loperamide hydrochloride]
Recovery [3]: * | Enrichment [3]: 7.6 | log P [1]: 5.2 | pKa [2]: 8.1

COc1ccc(CN(CCN(C)C)c2ccccn2)cc1 [Mepyramine, mepyramine]
log P [1]: 2.8

CN[C@@H](C)Cc1ccccc1 [Metamfetamine, methamphetamine sulphate]
pKa [2]: 10.1

C[C@H](N)[C@H](O)c1cccc(O)c1 [Metaraminol, metaraminol hydrochloride]
log P [1]: −0.3 | pKa [2]: 8.6

CCC(=O)C(CC(C)N(C)C)(c1ccccc1)c1ccccc1 (centres unmarked) [Methadone, methadone hydrochloride]
Recovery [3]: * | Enrichment [3]: 7.9

CNCCC=C1c2ccccc2CCc2ccccc21 [Nortriptyline, nortriptyline hydrochloride]
Recovery [3]: * | Enrichment [3]: 7.0 | log P [1]: 1.7

CCOC(=O)C1(c2ccccc2)CCN(C)CC1 [Pethidine, Pethidine hydrochloride]
Recovery [3]: * | Enrichment [3]: 7.0

c1ccc(C2(N3CCCCC3)CCCCC2)cc1 [Phencyclidine, phencyclidine]
log P [1]: 4.7

CC(=O)Nc1ccc(OCC(O)CNC(C)C)cc1 (centres unmarked) [Practolol, practolol]
log P [1]: −1.3

CC(CN1c2ccccc2Sc2ccccc21)N(C)C (centres unmarked) [Promethazine, promethazine]
log P [1]: 2.9
